US6770597B2, “Benzohydrazide derivatives as herbicides and desiccant compositions containing them” (Ishihara Sangyo Kaisha, Ltd., priority 2002, dated 2004)

Experiments:
Type in all cases: in vivo
[1] = test system: barnyardgrass (Echinochloa crus-galli, ECHCG); experiment: Greenhouse herbicide screen, post-emerge application, phytotoxicity rating; conditions: POST emergent, 14 days after application, scale 0-100
In short: (§1)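 Sown 1 d (pre) or 8–21 d (post) ahead; sprayed 15–1000 g ai/ha in acetone, 187 l/ha; nozzle 40–45 cm above canopy/soil; scored 0–100 at day 14.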

[2] = test system: cocklebur (Xanthium strumarium, XANST); experiment: as above; conditions: POST emergent, 14 days after application, scale 0-100
In short: as §1

[3] = test system: common ragweed (Ambrosia artemisiifolia L., AMBEL); experiment: as above; conditions: POST emergent, 14 days after application, scale 0-100
In short: as §1

[4] = test system: green foxtail (Setaria viridis, SETVI); experiment: as above; conditions: POST emergent, 14 days after application, scale 0-100
In short: as §1

[5] = test system: ivyleaf morningglory (Ipomoea hederacea, IPOHE); experiment: as above; conditions: POST emergent, 14 days after application, scale 0-100
In short: as §1

[6] = test system: johnsongrass (Sorghum halepense, SORHA); experiment: as above; conditions: POST emergent, 14 days after application, scale 0-100
In short: as §1

[7] = test system: lambsquarters (Chenopodium album, CHEAL); experiment: as above; conditions: POST emergent, 14 days after application, scale 0-100
In short: as §1

[8] = test system: large crabgrass (Digitaria sanguinalis, DIGSA); experiment: as above; conditions: POST emergent, 14 days after application, scale 0-100
In short: as §1

[9] = test system: redroot pigweed (Amaranthus retrofiexus, AMARE); experiment: as above; conditions: POST emergent, 14 days after application
In short: as §1

[10] = test system: sicklepod (Cassia obtusifolia, CASOB); experiment: as above; conditions: POST emergent, 14 days after application, scale 0-100
In short: as §1

[11] = test system: velvetleaf (Abutilon theophrasti, ABUTH); experiment: as above; conditions: POST emergent, 14 days after application, scale 0-100
In short: as §1

[12] = test system: field corn (Zea mays L., var. Dekalb 535, CORN); experiment: Greenhouse herbicide screen, post-emerge application, crop damage rating; conditions: POST emergent, 14 days after application, scale 0-100
In short: as §1

[13] = test system: upland rice (Oryza sp., var.Cocodrie, RICE); experiment: as above; conditions: POST emergent, 14 days after application, scale 0-100
In short: as §1

[14] = test system: barnyardgrass (Echinochloa crus-galli, ECHCG); experiment: Greenhouse herbicide screen, pre-emerge application, phytotoxicity rating; conditions: PRE emergent, 14 days after application, rating scale 0-100
In short: as §1

[15] = test system: cocklebur (Xanthium strumarium, XANST); experiment: as above; conditions: PRE emergent, 14 days after application, rating scale 0-100
In short: as §1

[16] = test system: common ragweed (Ambrosia artemisiifolia L., AMBEL); experiment: as above; conditions: PRE emergent, 14 days after application, rating scale 0-100
In short: as §1

[17] = test system: green foxtail (Setaria viridis, SETVI); experiment: as above; conditions: PRE emergent, 14 days after application, rating scale 0-100
In short: as §1

[18] = test system: ivyleaf morningglory (Ipomoea hederacea, IPOHE); experiment: as above; conditions: PRE emergent, 14 days after application, rating scale 0-100
In short: as §1

[19] = test system: johnsongrass (Sorghum halepense, SORHA); experiment: as above; conditions: PRE emergent, 14 days after application, rating scale 0-100
In short: as §1

[20] = test system: lambsquarters (Chenopodium album, CHEAL); experiment: as above; conditions: PRE emergent, 14 days after application, rating scale 0-100
In short: as §1

[21] = test system: large crabgrass (Digitaria sanguinalis, DIGSA); experiment: as above; conditions: PRE emergent, 14 days after application, rating scale 0-100
In short: as §1

[22] = test system: redroot pigweed (Amaranthus retrofiexus, AMARE); experiment: as above; conditions: PRE emergent, 14 days after application, rating scale 0-100
In short: as §1

[23] = test system: sicklepod (Cassia obtusifolia, CASOB); experiment: as above; conditions: PRE emergent, 14 days after application, rating scale 0-100
In short: as §1

[24] = test system: velvetleaf (Abutilon theophrasti, ABUTH); experiment: as above; conditions: PRE emergent, 14 days after application, rating scale 0-100
In short: as §1

[25] = test system: field corn (Zea mays L., var. Dekalb 535, CORN); experiment: Greenhouse herbicide screen, pre-emerge application, crop damage rating; conditions: PRE emergent, 14 days after application, rating scale 0-100
In short: as §1

[26] = test system: upland rice (Oryza sp., var.Cocodrie, RICE); experiment: as above; conditions: PRE emergent, 14 days after application, rating scale 0-100
In short: as §1

[27] = 63 g ai/ha, scale 0-100 (0 no damage, 100 complete death)

C#CCOC(=NN=C(C(C)(C)C)C(C)(C)C)c1cc(-n2c(=O)cc(C(F)(F)F)n(C)c2=O)c(F)cc1Cl [Compound 5-7]
phytotoxicity rating ECHCO ([1]; 63 g ai/ha): 35 | phytotoxicity rating ECHCO ([1]; 250 g ai/ha): 55 | phytotoxicity rating XANST ([2]; 63 g ai/ha): 0 | phytotoxicity rating XANST ([2]; 250 g ai/ha): 55 | phytotoxicity rating AMBEL ([3]; 63 g ai/ha): 50 | phytotoxicity rating AMBEL ([3]; 250 g ai/ha): 55 | phytotoxicity rating SETVI ([4]; 63 g ai/ha): 50 | phytotoxicity rating SETVI ([4]; 250 g ai/ha): 55 | phytotoxicity rating IPOHE ([5]; 63 g ai/ha): 60 | phytotoxicity rating IPOHE ([5]; 250 g ai/ha): 70 | phytotoxicity rating SORHA ([6]; 63 g ai/ha): 0 | phytotoxicity rating SORHA ([6]; 250 g ai/ha): 15 | phytotoxicity rating CHEAL ([7]; 63 g ai/ha): 70 | phytotoxicity rating CHEAL ([7]; 250 g ai/ha): 85 | phytotoxicity rating DIGSA ([8]; 63 g ai/ha): 0 | phytotoxicity rating DIGSA ([8]; 250 g ai/ha): 50 | phytotoxicity rating AMARE [9, 27]: 70 | phytotoxicity rating AMARE ([9]; 250 g ai/ha, scale 0-100): 99 | phytotoxicity rating CASOB ([10]; 63 g ai/ha): 50 | phytotoxicity rating CASOB ([10]; 250 g ai/ha): 50 | phytotoxicity rating ABUTH ([11]; 63 g ai/ha): 30 | phytotoxicity rating ABUTH ([11]; 250 g ai/ha): 70 | crop damage rating CORN ([12]; 63 g ai/ha): 0 | crop damage rating CORN ([12]; 250 g ai/ha): 15 | crop damage rating RICE ([13]; 63 g ai/ha): 10 | crop damage rating RICE ([13]; 250 g ai/ha): 0 | phytotoxicity rating ECHCG ([14]; 63 g ai/ha): 0 | phytotoxicity rating ECHCG ([14]; 250 g ai/ha): 0 | phytotoxicity rating XANST ([15]; 63 g ai/ha): 0 | phytotoxicity rating XANST ([15]; 250 g ai/ha): 0 | phytotoxicity rating AMBEL ([16]; 63 g ai/ha): 0 | phytotoxicity rating AMBEL ([16]; 250 g ai/ha): 50 | phytotoxicity rating SETVI ([17]; 63 g ai/ha): 30 | phytotoxicity rating SETVI ([17]; 250 g ai/ha): 80 | phytotoxicity rating IPOHE ([18]; 63 g ai/ha): 0 | phytotoxicity rating IPOHE ([18]; 250 g ai/ha): 30 | phytotoxicity rating SORHA ([19]; 63 g ai/ha): 15 | phytotoxicity rating SORHA ([19]; 250 g ai/ha): 20 | phytotoxicity rating CHEAL ([20]; 63 g ai/ha): 100 | phytotoxicity rating CHEAL ([20]; 250 g ai/ha): 100 | phytotoxicity rating DIGSA ([21]; 63 g ai/ha): 0 | phytotoxicity rating DIGSA ([21]; 250 g ai/ha): 50 | phytotoxicity rating AMARE ([22]; 63 g ai/ha): 60 | phytotoxicity rating AMARE ([22]; 250 g ai/ha): 100 | phytotoxicity rating CASOB ([23]; 63 g ai/ha): 0 | phytotoxicity rating CASOB ([23]; 250 g ai/ha): 50 | phytotoxicity rating ABUTH ([24]; 63 g ai/ha): 50 | phytotoxicity rating ABUTH ([24]; 250 g ai/ha): 99 | crop damage rating CORN ([25]; 63 g ai/ha): 0 | crop damage rating CORN ([25]; 250 g ai/ha): 10 | crop damage rating RICE ([26]; 63 g ai/ha): 0 | crop damage rating RICE ([26]; 250 g ai/ha): 0

Cn1c(C(F)(F)F)cc(=O)n(-c2cc(C(=O)NN=C(c3ccccc3)c3ccccc3)c(Cl)cc2F)c1=O [Compound 6-15]
phytotoxicity rating ECHCO ([1]; 63 g ai/ha): 50 | phytotoxicity rating ECHCO ([1]; 250 g ai/ha): 65 | phytotoxicity rating XANST ([2]; 63 g ai/ha): 70 | phytotoxicity rating XANST ([2]; 250 g ai/ha): 75 | phytotoxicity rating AMBEL ([3]; 63 g ai/ha): 80 | phytotoxicity rating AMBEL ([3]; 250 g ai/ha): 80 | phytotoxicity rating SETVI ([4]; 63 g ai/ha): 55 | phytotoxicity rating SETVI ([4]; 250 g ai/ha): 60 | phytotoxicity rating IPOHE ([5]; 63 g ai/ha): 75 | phytotoxicity rating IPOHE ([5]; 250 g ai/ha): 100 | phytotoxicity rating SORHA ([6]; 63 g ai/ha): 0 | phytotoxicity rating SORHA ([6]; 250 g ai/ha): 15 | phytotoxicity rating CHEAL ([7]; 63 g ai/ha): 90 | phytotoxicity rating CHEAL ([7]; 250 g ai/ha): 90 | phytotoxicity rating DIGSA ([8]; 63 g ai/ha): 20 | phytotoxicity rating DIGSA ([8]; 250 g ai/ha): 50 | phytotoxicity rating AMARE [9, 27]: 90 | phytotoxicity rating AMARE ([9]; 250 g ai/ha, scale 0-100): 90 | phytotoxicity rating CASOB ([10]; 63 g ai/ha): 70 | phytotoxicity rating CASOB ([10]; 250 g ai/ha): 75 | phytotoxicity rating ABUTH ([11]; 63 g ai/ha): 80 | phytotoxicity rating ABUTH ([11]; 250 g ai/ha): 98 | crop damage rating CORN ([12]; 63 g ai/ha): 20 | crop damage rating CORN ([12]; 250 g ai/ha): 25 | crop damage rating RICE ([13]; 63 g ai/ha): 0 | crop damage rating RICE ([13]; 250 g ai/ha): 0 | phytotoxicity rating ECHCG ([14]; 63 g ai/ha): 0 | phytotoxicity rating ECHCG ([14]; 250 g ai/ha): 35 | phytotoxicity rating XANST ([15]; 63 g ai/ha): 30 | phytotoxicity rating XANST ([15]; 250 g ai/ha): 60 | phytotoxicity rating AMBEL ([16]; 63 g ai/ha): 70 | phytotoxicity rating AMBEL ([16]; 250 g ai/ha): 95 | phytotoxicity rating SETVI ([17]; 63 g ai/ha): 75 | phytotoxicity rating SETVI ([17]; 250 g ai/ha): 98 | phytotoxicity rating IPOHE ([18]; 63 g ai/ha): 15 | phytotoxicity rating IPOHE ([18]; 250 g ai/ha): 95 | phytotoxicity rating SORHA ([19]; 63 g ai/ha): 40 | phytotoxicity rating SORHA ([19]; 250 g ai/ha): 95 | phytotoxicity rating CHEAL ([20]; 63 g ai/ha): 100 | phytotoxicity rating CHEAL ([20]; 250 g ai/ha): 100 | phytotoxicity rating DIGSA ([21]; 63 g ai/ha): 85 | phytotoxicity rating DIGSA ([21]; 250 g ai/ha): 99 | phytotoxicity rating AMARE ([22]; 63 g ai/ha): 100 | phytotoxicity rating AMARE ([22]; 250 g ai/ha): 100 | phytotoxicity rating CASOB ([23]; 63 g ai/ha): 65 | phytotoxicity rating CASOB ([23]; 250 g ai/ha): 99 | phytotoxicity rating ABUTH ([24]; 63 g ai/ha): 100 | phytotoxicity rating ABUTH ([24]; 250 g ai/ha): 100 | crop damage rating CORN ([25]; 63 g ai/ha): 0 | crop damage rating CORN ([25]; 250 g ai/ha): 0 | crop damage rating RICE ([26]; 63 g ai/ha): 0 | crop damage rating RICE ([26]; 250 g ai/ha): 0
